Source: patent publication US8802597B2, “Herbicidal pyrimidines” (E I du Pont de Nemours and Company, priority 2003, dated 2014)

How the values were obtained:
Test in all cases: Test J mixtures of compound 58 with azimsulfuron, flooded paddy
Assay type in all cases: in vivo
Settings in all cases: 21 days, scale 0-100
[1] = tested on: barnyardgrass (ECHCG; Echinochloa crus-galli)
Excerpt: (§1) This test evaluated the effect of mixtures of compound 58 with azimsulfuron on several plant species. Three plastic pots (ca. 16-cm diameter) per rate were partially filled with sterilized Tama silt loam soil comprising a 35:50:15 ratio of sand, silt and clay and 2.6% organic matter. Separate plantings for each of the three pots were as follows. Seeds from the U.S. of ducksalad (HETLI; Heteranthera limosa), smallflower umbrella sedge (CYPDI; Cyperus difformis) and purple redstem (AMMCO; Ammannia coccinea), were planted into one 16-cm pot for each rate. Seeds from the U.S. of bearded sprangletop (LEFUF; Leptochloa fusca ssp. fascicularis), one stand of 9 or 10 water-seeded rice seedlings (ORYSW; Oryza sativa cv. ‘Japonica-M202’), and one stand of 6 transplanted rice seedlings (ORYSP; Oryza sativa cv. ‘Japonica-M202’) were planted into one 16-cm pot for each rate. Seeds from the U.S. of barnyardgrass (ECHCG; Echinochloa crus-galli), late watergrass (ECOR2; Echinochloa oryzicola), early watergrass (ECHOR; Echinochloa oryzoides) and junglerice (ECHCO; Echinochloa colona) were planted into one 16-cm pot for each rate. Plantings were sequential so that crop and weed species were at the 2.0 to 2.5-leaf stage at time of treatment.
(§2) Potted plants were grown in a greenhouse with day/night temperature settings of 29.5/26.7° C., and supplemental balanced lighting was provided to maintain a 16-hour photoperiod. Test pots were maintained in the greenhouse until test completion.
(§3) At time of treatment, test pots were flooded to 3 cm above the soil surface and then treated by application directly to the paddy water of test compounds formulated in a non-phytotoxic solvent mixture which included a surfactant. The pots were maintained at the 3-cm water depth for the duration of the test. Treatments consisted of compound 58 and azimsulfuron alone and in combination. Effects of treatments on rice and weeds were visually evaluated by comparison to untreated controls after 21 days. Plant response ratings were calculated as the means of the three replicates and are summarized in Table J. The ratings are based on a scale of 0 to 100 where 0 is no effect and 100 is complete control. A dash (-) response means no test result. Colby's Equation was used to determine the herbicidal effects expected from the mixtures.

[2] = tested on: bearded sprangletop (LEFUF; Leptochloa fusca ssp. fascicularis)
Excerpt: as §1, §2, §3

[3] = tested on: ducksalad (HETLI; Heteranthera limosa)
Excerpt: as §1, §2, §3

[4] = tested on: early watergrass (ECHOR; Echinochloa oryzoides)
Excerpt: as §1, §2, §3

[5] = tested on: junglerice (ECHCO; Echinochloa colona)
Excerpt: as §1, §2, §3

[6] = tested on: late watergrass (ECOR2; Echinochloa oryzicola)
Excerpt: as §1, §2, §3

[7] = tested on: purple redstem (AMMCO; Ammannia coccinea)
Excerpt: as §1, §2, §3

[8] = tested on: smallflower umbrella sedge (CYPDI; Cyperus difformis)
Excerpt: as §1, §2, §3

[9] = tested on: transplanted rice seedlings (ORYSP; Oryza sativa cv. ‘Japonica-M202’)
Excerpt: as §1, §2, §3

[10] = tested on: water-seeded rice seedlings (ORYSW; Oryza sativa cv. ‘Japonica-M202’)
Excerpt: as §1, §2, §3

Q: Which “ECHCG Obsd.” value ([1]; Azimsulfuron 2 g a.i./ha alone) does the source give for `COc1cc(OC)nc(NC(=O)NS(=O)(=O)c2c(-c3nnn(C)n3)cnn2C)n1` [Azimsulfuron] here?
A: 0

Q: What about the “ECHCG Obsd.” value ([1]; Azimsulfuron 4 g a.i./ha alone) of the same compound?
A: 0

Q: And the “ECHCG Obsd.” value ([1]; Azimsulfuron 8 g a.i./ha alone)?
A: 30

Q: And the “LEFUF Obsd.” value ([2]; Azimsulfuron 2 g a.i./ha alone)?
A: 0

Q: What about the “LEFUF Obsd.” value ([2]; Azimsulfuron 4 g a.i./ha alone) of the same compound?
A: 0

Q: What about the “LEFUF Obsd.” value ([2]; Azimsulfuron 8 g a.i./ha alone) of the same compound?
A: 0

Q: What about the “HETLI Obsd.” value ([3]; Azimsulfuron 2 g a.i./ha alone) of the same compound?
A: 30

Q: And the “HETLI Obsd.” value ([3]; Azimsulfuron 4 g a.i./ha alone)?
A: 30

Q: What about the “HETLI Obsd.” value ([3]; Azimsulfuron 8 g a.i./ha alone) of the same compound?
A: 100

Q: And the “ECHOR Obsd.” value ([4]; Azimsulfuron 2 g a.i./ha alone)?
A: 0

Q: And the “ECHOR Obsd.” value ([4]; Azimsulfuron 4 g a.i./ha alone)?
A: 0

Q: And the “ECHOR Obsd.” value ([4]; Azimsulfuron 8 g a.i./ha alone)?
A: 40

Q: And the “ECHCO Obsd.” value ([5]; Azimsulfuron 2 g a.i./ha alone)?
A: 0

Q: What about the “ECHCO Obsd.” value ([5]; Azimsulfuron 4 g a.i./ha alone) of the same compound?
A: 0

Q: What about the “ECHCO Obsd.” value ([5]; Azimsulfuron 8 g a.i./ha alone) of the same compound?
A: 40

Q: What about the “ECOR2 Obsd.” value ([6]; Azimsulfuron 2 g a.i./ha alone) of the same compound?
A: 0

Q: And the “ECOR2 Obsd.” value ([6]; Azimsulfuron 4 g a.i./ha alone)?
A: 0

Q: And the “ECOR2 Obsd.” value ([6]; Azimsulfuron 8 g a.i./ha alone)?
A: 50

Q: And the “AMMCO Obsd.” value ([7]; Azimsulfuron 2 g a.i./ha alone)?
A: 0

Q: What about the “AMMCO Obsd.” value ([7]; Azimsulfuron 4 g a.i./ha alone) of the same compound?
A: 0

Q: What about the “AMMCO Obsd.” value ([7]; Azimsulfuron 8 g a.i./ha alone) of the same compound?
A: 95

Q: What about the “CYPDI Obsd.” value ([8]; Azimsulfuron 2 g a.i./ha alone) of the same compound?
A: 95

Q: And the “CYPDI Obsd.” value ([8]; Azimsulfuron 4 g a.i./ha alone)?
A: 100

Q: And the “CYPDI Obsd.” value ([8]; Azimsulfuron 8 g a.i./ha alone)?
A: 100

Q: And the “ORYSP Obsd.” value ([9]; Azimsulfuron 2 g a.i./ha alone)?
A: 0

Q: And the “ORYSP Obsd.” value ([9]; Azimsulfuron 4 g a.i./ha alone)?
A: 0

Q: And the “ORYSP Obsd.” value ([9]; Azimsulfuron 8 g a.i./ha alone)?
A: 0

Q: And the “ORYSW Obsd.” value ([10]; Azimsulfuron 2 g a.i./ha alone)?
A: 0

Q: What about the “ORYSW Obsd.” value ([10]; Azimsulfuron 4 g a.i./ha alone) of the same compound?
A: 0

Q: What about the “ORYSW Obsd.” value ([10]; Azimsulfuron 8 g a.i./ha alone) of the same compound?
A: 10
